Laboratory results taken from publication PMC11367503, “Exploring galectin interactions with human milk oligosaccharides and blood group antigens identifies BGA6 as a functional galectin-4 ligand” (The Journal of Biological Chemistry, 2024).
Where “and” joins values, the source holds several entries; their conditions need not be identical. Equal entries are not always repeated.

Key:
Format in all cases: binding
human Gal-1 [1] = molecular target: T1, human Gal-1 (Homo sapiens, UniProt P09382); experiment: Competitive solid-phase assay (SPA), immobilized asialofetuin, Gal-1; conditions: mean ± S.D., three independent experiments
T1 construct: made in house; host or cells: Escherichia coli BL21 (DE3)
Protocol: (§1) The assay was adapted from Rapoport et al. (2010) ([88]). Briefly, 96-well plates (flat-bottom) were coated with 10 μg/ml asialofetuin (ASF, Sigma-Aldrich) in sodium carbonate buffer (pH 9.6) and incubated overnight at 4 °C. Then, wells were washed three times with 100 μl/well PBS-Tween 0.05% (w/v) and blocked with 100 μl/well PBS-bovine serum albumin (BSA) 2% (1 h, room temperature (RT)) in a humid chamber. Meanwhile, equal volumes of human recombinant Gal-1, -3, -4, -7, and -12 (20–40 μg/ml) in PBS-BSA 0.3% buffer were preincubated with the corresponding inhibitors in serial dilutions (2 h, 37 °C). After washing, galectins were detected using the corresponding antigalectin primary detection antibodies in PBS-BSA 0.3% w/v (1 h at RT). For Gal-1, wells were incubated with an in-house purified 100 ng/ml biotinylated rabbit anti–human Gal-1 polyclonal immunoglobulin G. For Gal-3, -4, and -7, a 1:500 dilution of the corresponding biotinylated anti-human galectin antibodies was used (BAF1154, BAF1227, and MAB13391, respectively, R&D Systems). For Gal-12, a rabbit anti-human Gal-12 polyclonal antibody (Santa Cruz Biotechnology, 1:700) was used. For Gal-1, -3, -4, and -7, plates were rinsed three times before adding 0.33 μg/ml horseradish peroxidase (HRP)-labeled streptavidin (Sigma-Aldrich) for 30 min. For Gal-12, an anti-rabbit secondary antibody conjugate coupled to HRP was incubated for 1 h at RT in PBS-BSA 0.3% w/v. After washing, 100 μl TMB solution (0.1 mg/ml tetramethylbenzidine and 0.06% H2O2 in citrate-phosphate buffer, pH 5.0) was added to plates. The reaction was stopped by adding a 2N H2SO4 solution. Absorbance was determined at 450 nm in a Multiskan MS microplate reader (Thermo Fisher Scientific).

human Gal-3 [2] = molecular target: T2, human Gal-3 (Homo sapiens, UniProt P17931); experiment: Competitive solid-phase assay (SPA), immobilized asialofetuin, Gal-3; conditions: mean ± S.D., three independent experiments
T2 construct: made in house; host or cells: Escherichia coli BL21 (DE3)
Protocol: as §1

human Gal-4 [3] = molecular target: T3, human Gal-4 (Homo sapiens, UniProt P56470); experiment: Competitive solid-phase assay (SPA), immobilized asialofetuin, Gal-4; conditions: mean ± S.D., three independent experiments
T3 construct: His6-SUMO (N, cleaved yes); made in house; host or cells: Escherichia coli BL21 (DE3)
T3 sequence (P56470 1-323): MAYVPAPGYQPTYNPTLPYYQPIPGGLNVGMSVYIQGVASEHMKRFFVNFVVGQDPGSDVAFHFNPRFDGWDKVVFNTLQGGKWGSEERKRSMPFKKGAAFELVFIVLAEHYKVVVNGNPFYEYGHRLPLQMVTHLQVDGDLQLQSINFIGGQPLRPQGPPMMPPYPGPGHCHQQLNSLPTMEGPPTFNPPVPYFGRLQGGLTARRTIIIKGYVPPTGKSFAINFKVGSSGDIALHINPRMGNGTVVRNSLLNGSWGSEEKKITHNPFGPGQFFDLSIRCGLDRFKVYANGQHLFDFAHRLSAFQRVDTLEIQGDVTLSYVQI
Protocol: as §1

human Gal-7 [4] = molecular target: T4, human Gal-7 (Homo sapiens, UniProt P47929); experiment: Competitive solid-phase assay (SPA), immobilized asialofetuin, Gal-7; conditions: for IC50: competitive SPA, immobilized asialofetuin, mean ± S.D., three independent experiments; for affinity of Gal-7 weaker than that shown by Gal-1: SPA, Gal-7 versus Gal-1
T4 construct: made in house; host or cells: Escherichia coli BL21 (DE3)
Protocol: as §1

human Gal-12 [5] = molecular target: T5, human Gal-12 (Homo sapiens, UniProt Q96DT0); experiment: Competitive solid-phase assay (SPA), immobilized asialofetuin, Gal-12; conditions: mean ± S.D., three independent experiments
T5 construct: To obtain full-length human Gal-12, we adapted our previously optimized procedure for murine Gal-12; made in house; host or cells: Escherichia coli Rosetta 2 (DE3)
T5 sequence (Q96DT0 1-336): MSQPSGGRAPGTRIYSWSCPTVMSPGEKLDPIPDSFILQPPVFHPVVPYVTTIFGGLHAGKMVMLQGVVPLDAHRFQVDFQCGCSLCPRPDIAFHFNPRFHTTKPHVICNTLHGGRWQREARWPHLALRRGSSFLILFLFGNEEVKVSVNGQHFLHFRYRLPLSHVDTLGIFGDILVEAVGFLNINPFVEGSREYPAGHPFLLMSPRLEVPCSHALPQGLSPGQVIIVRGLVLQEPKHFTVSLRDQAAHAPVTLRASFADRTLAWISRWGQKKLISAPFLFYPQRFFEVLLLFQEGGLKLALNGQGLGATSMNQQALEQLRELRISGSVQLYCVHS
Protocol: as §1

human Gal-4 [6] = molecular target: T3, human Gal-4; experiment: Isothermal titration calorimetry (ITC), Gal-4; conditions: Gal-4, PBS, 298 K; for Kd: n fixed to 1.00
Protocol: (§2) All ITC experiments were performed by using a NanoITC (TA Instruments) under previously optimized conditions ([89]). A typical titration involved 20 injections at 300 s intervals of 2.5 μl aliquots of a 2.5 to 10 mM ligand solution into the sample cell (volume 200 μl) containing the different galectins (30–100 μM). The solutions were prepared by dissolving the glycan ligands in degassed PBS buffer at 298 K. The titration cell was continuously stirred at 300 rev/min. The heats of dilution of the ligands in the buffer were subtracted from the titration data. […] Fitting was performed using the Nano Analyze software (TA Instruments; https://www.tainstruments.com/itcrun-dscrun-nanoanalyze-software/) to determine association constants (Ka) and the enthalpy change (ΔH). No reliable fit of the thermodynamic parameters could be obtained for binding affinities above 80 μM.

human Gal-7 [7] = molecular target: T4, human Gal-7; experiment: Isothermal titration calorimetry (ITC), Gal-7; conditions: Gal-7, PBS, 298 K, n fixed to 1.00
Protocol: as §2

human Gal-1 [8] = molecular target: T1, human Gal-1; experiment: Isothermal titration calorimetry (ITC), Gal-1; conditions: Gal-1, PBS, 298 K; for Kd: n fixed to 1.00
Protocol: as §2

human Gal-3 [9] = molecular target: T2, human Gal-3; experiment: Isothermal titration calorimetry (ITC), Gal-3; conditions: Gal-3, PBS, 298 K; for Kd: n fixed to 1.00
Protocol: as §2

human Gal-12 [10] = molecular target: T5, human Gal-12; experiment: Isothermal titration calorimetry (ITC), Gal-12; conditions: Gal-12, PBS, 298 K, n fixed to 1.00
Protocol: as §2

T4 sequence (P47929 whole entry): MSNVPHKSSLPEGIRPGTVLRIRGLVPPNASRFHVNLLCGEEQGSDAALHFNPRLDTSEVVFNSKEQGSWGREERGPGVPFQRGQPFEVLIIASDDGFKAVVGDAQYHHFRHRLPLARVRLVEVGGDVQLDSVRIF
T1 sequence (P09382 whole entry): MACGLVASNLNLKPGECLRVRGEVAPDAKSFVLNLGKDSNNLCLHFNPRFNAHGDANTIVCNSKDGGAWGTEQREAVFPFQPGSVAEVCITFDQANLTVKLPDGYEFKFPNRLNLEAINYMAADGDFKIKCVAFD
T2 sequence (P17931 whole entry): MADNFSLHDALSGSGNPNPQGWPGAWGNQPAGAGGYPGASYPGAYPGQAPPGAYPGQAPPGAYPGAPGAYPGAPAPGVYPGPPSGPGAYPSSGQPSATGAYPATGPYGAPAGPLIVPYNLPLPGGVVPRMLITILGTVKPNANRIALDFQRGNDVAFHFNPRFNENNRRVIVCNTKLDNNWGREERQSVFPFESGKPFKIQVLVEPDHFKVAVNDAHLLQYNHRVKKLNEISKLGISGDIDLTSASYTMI

SMILES	IC50 (human Gal-1 [1])	IC50 (human Gal-3 [2])	IC50 (human Gal-4 [3])	IC50 (human Gal-7 [4])	IC50 (human Gal-12 [5])	other results
CC(=O)NC1C(O)OC(CO)C(OC2OC(CO)C(O)C(OC3OC(CO)C(O)C(O)C3NC(C)=O)C2OC2OC(C)C(O)C(O)C2O)C1O (stereo not drawn) [BGA2, blood group A antigen 2]	6.3 mM and 6.32 mM	1.9 ± 0.4 mM	0.2 mM and 0.24 mM	2.2 ± 0.4 mM	25.3 ± 12 mM	-TΔS (human Gal-4 [6]): 0.263 ± 0.048 kcal/mol; ΔH (human Gal-4 [6]): -5.98 ± 0.48 kcal/mol; Kd (human Gal-4 [6]): 0.065 ± 0.005 mM; Kd (human Gal-7 [7]): 0.103 ± 0.008 mM
CC(=O)NC1C(OC2C(O)C(CO)OC(OC3C(CO)OC(O)C(O)C3O)C2O)OC(CO)C(O)C1OC1OC(CO)C(O)C(O)C1O (stereo not drawn) [LNT, lacto-N-tetraose]	1.6 ± 0.1 mM	~1.8 mM and 1.8 mM	15.1 ± 0.2 mM	2 mM	30.1 ± 5 mM	Kd (human Gal-7 [7]): 0.106 ± 0.008 mM
CC(=O)NC1C(O)CC(OC2C(O)C(CO)OC(OC3C(O)C(CO)OC(OC4C(O)C(CO)OC(OC5C(CO)OC(O)C(O)C5O)C4O)C3NC(C)=O)C2O)(C(=O)O)OC1C(O)C(O)CO (stereo not drawn) [LSTa, sialyl-lacto-N-tetraose a]	1.8 ± 0.1 mM	7.8 ± 0.8 mM		4.3 ± 0.9 mM	9.2 ± 1 mM	
CC(=O)NC1C(OC2C(O)C(CO)OC(OC3C(CO)OC(O)C(O)C3O)C2O)OC(CO)C(OC2OC(CO)C(O)C(O)C2O)C1O (stereo not drawn) [LNnT, lacto-N-neotetraose]	0.5 ± 0.1 mM	~1.8 mM and 1.8 mM	25.2 mM	3.3 mM	29.3 ± 6 mM	affinity of Gal-7 weaker than that shown by Gal-1 (human Gal-7 [4]): ca. 5 fold; -TΔS (human Gal-1 [8]): -3.51 ± 0.19 kcal/mol; ΔH (human Gal-1 [8]): -2.15 ± 0.22 kcal/mol; Kd (human Gal-1 [8]): 0.072 ± 0.008 mM; Kd (human Gal-3 [9]): 0.095 ± 0.009 mM
CC(=O)NC1C(OC2C(O)C(CO)OC(OC3C(CO)OC(O)C(O)C3OC3OC(C)C(O)C(O)C3O)C2O)OC(CO)C(OC2OC(CO)C(O)C(O)C2O)C1OC1OC(C)C(O)C(O)C1O (stereo not drawn) [DFH, 3,3-difucosylhexaose (Lewis X hexaose)]	9.7 mM and 9.73 mM	10.5 ± 0.7 mM	13.8 ± 3 mM	9.2 ± 0.2 mM	5.6 ± 0.8 mM	
CC(=O)NC1C(OC2C(O)C(CO)OC(OC3C(CO)OC(O)C(O)C3OC3OC(C)C(O)C(O)C3O)C2O)OC(CO)C(OC2OC(C)C(O)C(O)C2O)C1OC1OC(CO)C(O)C(O)C1O (stereo not drawn) [LAH, Lewis A antigen hexaose]		9.3 ± 0.6 mM	30.4 ± 2 mM	22.2 ± 0.8 mM	51.1 ± 5 mM	
OC[C@H]1O[C@@H](O[C@H]2[C@H](O)[C@@H](O)C(O)O[C@@H]2CO)[C@H](O)[C@@H](O)[C@H]1O (mixture of isomers) [Lac, lactose]			23.1 mM	3 ± 0.6 mM	82.1 ± 0.8 mM	
CC(=O)NC1C(OC2C(O)C(CO)OC(OC3C(O)C(CO)OC(O)C3NC(C)=O)C2OC2OC(C)C(O)C(O)C2O)OC(CO)C(O)C1O (stereo not drawn) [BGA1, blood group A antigen 1]	6.2 mM and 6.19 mM	1.2 ± 0.5 mM	0.2 ± 0.1 mM	2.5 ± 0.8 mM	30.3 ± 9 mM	
CC(=O)NC1C(O)OC(CO)C(OC2OC(CO)C(O)C(O)C2O)C1OC1OC(C)C(O)C(O)C1O (stereo not drawn) [Le^X, Lewis X trisaccharide]	8.2 ± 0.9 mM	9.5 ± 0.5 mM	26.2 ± 0.9 mM	15.1 ± 2 mM	2 ± 0.3 mM	Kd (human Gal-12 [10]): 0.08 ± 0.009 mM
CC(=O)NC1C(O)OC(CO)C(OC2OC(CO)C(O)C(OC3(C(=O)O)CC(O)C(NC(C)=O)C(C(O)C(O)CO)O3)C2O)C1O (stereo not drawn) [3’-SLacNAc, 3’-sialyl-N-acetyllactosamine]	2.2 ± 0.04 mM	4.8 ± 0.3 mM		2.2 mM	9.8 ± 1 mM	
CC(=O)NC1C(OC2C(O)C(CO)OC(OC3C(CO)OC(OC4C(O)C(CO)OC(OC5C(CO)OC(OC6C(O)C(CO)OC(OC7C(CO)OC(O)C(O)C7O)C6O)C(NC(C)=O)C5O)C4O)C(NC(C)=O)C3O)C2O)OC(CO)C(OC2OC(CO)C(O)C(O)C2O)C1O (stereo not drawn) [LNnO, lacto-N-neooctaose]	0.6 ± 0.1 mM	0.5 ± 0.9 mM	21.5 mM	2.1 ± 0.8 mM	28.1 ± 5 mM	affinity of Gal-7 weaker than that shown by Gal-1 (human Gal-7 [4]): ca. 5 fold; -TΔS (human Gal-1 [8]): -2.61 ± 0 kcal/mol; ΔH (human Gal-1 [8]): -3.04 ± 0.48 kcal/mol; Kd (human Gal-1 [8]): 0.073 ± 0.007 mM; -TΔS (human Gal-3 [9]): -5.02 ± 0.48 kcal/mol; ΔH (human Gal-3 [9]): -1.1 ± 0.096 kcal/mol; Kd (human Gal-3 [9]): 0.04 ± 0.003 mM
CC(=O)NC1C(O)CC(OC2C(O)C(CO)OC(OC3C(CO)OC(O)C(O)C3O)C2O)(C(=O)O)OC1C(O)C(O)CO (stereo not drawn) [3’-SL, 3′-sialyllactose]	2.2 ± 0.03 mM	11 ± 0.9 mM		1.7 ± 0.2 mM	11.1 ± 1 mM	Kd (human Gal-7 [7]): 0.097 ± 0.009 mM
CC(=O)NC1C(O)CC(OCC2OC(OC3C(CO)OC(O)C(O)C3O)C(O)C(O)C2O)(C(=O)O)OC1C(O)C(O)CO (stereo not drawn) [6’-SL, 6′-sialyllactose]				9.5 ± 0.3 mM	53.3 ± 2 mM	
CC1OC(OC2C(OC3C(CO)OC(O)C(O)C3O)OC(CO)C(O)C2O)C(O)C(O)C1O (stereo not drawn) [2’-FL, 2′-fucosyllactose]	1.2 mM and 1.23 mM	4.2 ± 0.3 mM	1.5 ± 0.6 mM	8.3 ± 0.5 mM	63.5 ± 0.8 mM	Kd (human Gal-4 [6]): 0.13 ± 0.009 mM
CC1OC(OC2C(OC3C(CO)OC(O)C(O)C3OC3OC(C)C(O)C(O)C3O)OC(CO)C(O)C2O)C(O)C(O)C1O (stereo not drawn) [DFL, 2′,3-difucosyllactose]	11.9 mM	9.1 ± 0.9 mM	14.5 ± 0.7 mM	18.4 ± 0.3 mM	4.5 ± 0.6 mM	
CC(=O)NC1C(OC2C(O)C(CO)OC(OC3C(CO)OC(O)C(O)C3OC3OC(C)C(O)C(O)C3O)C2O)OC(CO)C(O)C1OC1OC(CO)C(O)C(O)C1O (stereo not drawn) [LNFP V, lacto-N-fucopentaose V]	2.6 mM and 2.61 mM	2.7 ± 0.5 mM	25.1 ± 0.5 mM	7.2 ± 0.3 mM	8.9 ± 1 mM	
CC(=O)NC1C(O)CC(OC2C(O)C(CO)OC(OC3C(CO)OC(O)C(O)C3OC3OC(C)C(O)C(O)C3O)C2O)(C(=O)O)OC1C(O)C(O)CO (stereo not drawn) [SFL, 3’-sialyl-3-fucosyllactose]	5.7 ± 0.1 mM	39 ± 0.6 mM		4.8 ± 0.9 mM	3.2 ± 0.4 mM	Kd (human Gal-12 [10]): 0.151 ± 0.011 mM
